US6797255B1, “Methods and compositions for enhancing magnetic resonance imaging” (Mallinckrodt Inc., priority 1985, dated 2004)

Experiments:
[1] = Solubility of the complex in water; type: physicochemical
Method: (§1) The complex, dihydrogen bis(N-[N′-(2,6-diisopropylphenyl)carbamoylmethyl]iminodiaceto)manganese(II) hydrate, was thus isolated as the hydrated species. The solubility of the complex in water was determined to be approximately 0.1% w/v. The relaxation parameters T1 and T2 of a 10-^−3M solution of the complex in a 90 MHz NMR experiment were determined to be 0.107 sec. and 0.007 sec. respectively. The T1 and T2 values for water are 2.51 sec. and 0.150 sec., respectively.
(§2) The relaxation parameters T1 and T2 of a 10^−3M solution of the complex in a 90 MHz NMR experiment were determined to be 126 milliseconds and 1.5 milliseconds, respectively.

[2] = Relaxation parameters T1 and T2 of a 10^−3M solution in a 90 MHz NMR experiment; type: physicochemical; conditions: 10^−3M solution
Method: as §1, §2

Swiss CF-1 mice = test: Acute intravenous toxicity determination; type: in vivo; conditions: for LD50: acute, intravenous, Trihydrate
Method: Dihydrogen Bis(N-[N′-(2,6-dimethylphenyl)carbamoylmethyl]iminidiaceto)manganese(II) trihydrate was dissolved in 0.9% sodium chloride Inj. USP as a 1.25% solution.
Male and female Swiss CF-1 mice with a body weight range of 17.4 to 24.2 grams were used. The mice were housed according to standard procedures and individually marked with picric acid.
The dose schedule was as follows:
Measured single doses were injected into the lateral tail vein at a rate of 1 ml/min. The animals were observed immediately after dosing and during the 7-day observation period for pharmacotoxic reactions. Recording of terminal body weights and general necropsy-of the thoracic and abdominal organs was performed after 7 days.

rabbits = test: Tissue T1 and T2 relaxation times 45 min after intravenous injection (time course); type: in vivo; conditions: for T1 relaxation time / T2 relaxation time: 45 min after 0.03 mmol/kg i.v., 10 mHz RADX
Method: (§3) All experiments employing the complex dihydrogen bis(N-[N′-(2,6-dimethylphenyl)carbamoylmethyl]iminodiaceto)manganese (II) trihydrate were conducted following intravenous administration to rabbits. A 10 mM solution of the complex was used in these studies. Rabbits were anesthetized with ketamine/xylazine prior to treatment. The results given were obtained with a 10 mHz RADX proton spin analyzer.
A second study was performed in two rabbits killed 45 min after intravenous injection of 0.03 mmol of the complex/Kg to examine the time course of T1 and T2relaxation enhancement.

rabbit [3] = test: Bile proton T1 and T2 relaxation times over 105 min after intravenous injection; type: in vivo; conditions: 0.03 mmol/kg i.v., one rabbit
Method: as §3
In a third study, one rabbit received 0.03 mmol of the complex/kg and bile samples were collected at 5-20 min intervals over a 105 min time course and proton T1 and T2 relaxation times were determined. Control bile T1 relaxation time was 944 msec. within 1 min of injection, bile T1 was reduced to 60 msec. Over the 105 minute time course, bile T1 returned to a value of 91 msec, less than 10% of the preinjection control value. The preinjection bile T2 relaxation time was 16 msec.

rabbit [4] = test: Tissue T1 and T2 relaxation times 5 min, 15 min or 1 week after 0.05 mmol/kg intravenous dose; type: in vivo; conditions: 0.05 mmol/kg i.v.
Method: as §3
In another study, employing an intravenous dose of 0.05 mmol of the complex/Kg, one rabbit was killed at time points of 5 min, 15 min or 1 week after dosing. In animals killed at 5 and 15 min, heart and liver T1 and T2 relaxation times were determined with 5 and 10 mHz instruments.

Cc1cccc(C)c1NC(=O)CN(CC(=O)[O-])CC(=O)O.Cc1cccc(C)c1NC(=O)CN(CC(=O)[O-])CC(=O)O.O.O.O.[Mn+2] [Example 2]
solubility of the complex in water [1]: 2.5 % w/v | solubility of the complex in water (molar) [1]: approximately 3.6×10^−3 M | relaxation parameter T1 [2]: 126 milliseconds | relaxation parameter T2 [2]: 1.5 milliseconds | Body weight change (Swiss CF-1 mice; 0.360 mmol/kg i.v., after 7 days): +1.75 g | Mortalities/number tested (Swiss CF-1 mice; 0.360 mmol/kg i.v., day 1 after dosing): 0/4 | Mortalities/number tested (Swiss CF-1 mice; 0.360 mmol/kg i.v., day 2 after dosing): 0/4 | Mortalities/number tested (Swiss CF-1 mice; 0.360 mmol/kg i.v., day 3 after dosing): 0/4 | Mortalities/number tested (Swiss CF-1 mice; 0.360 mmol/kg i.v., day 4 after dosing): 0/4 | Mortalities/number tested (Swiss CF-1 mice; 0.360 mmol/kg i.v., day 5 after dosing): 0/4 | Mortalities/number tested (Swiss CF-1 mice; 0.360 mmol/kg i.v., day 6 after dosing): 0/4 | Mortalities/number tested (Swiss CF-1 mice; 0.360 mmol/kg i.v., day 7 after dosing): 0/4 | Mortalities/number tested (Swiss CF-1 mice; 0.360 mmol/kg i.v., immediate): 0/4 | Body weight change (Swiss CF-1 mice; 0.540 mmol/kg i.v., after 7 days): +2.0 g | Mortalities/number tested (Swiss CF-1 mice; 0.540 mmol/kg i.v., day 1 after dosing): 2/4 | Mortalities/number tested (Swiss CF-1 mice; 0.540 mmol/kg i.v., day 2 after dosing): 2/4 | Mortalities/number tested (Swiss CF-1 mice; 0.540 mmol/kg i.v., day 3 after dosing): 2/4 | Mortalities/number tested (Swiss CF-1 mice; 0.540 mmol/kg i.v., day 4 after dosing): 2/4 | Mortalities/number tested (Swiss CF-1 mice; 0.540 mmol/kg i.v., day 5 after dosing): 2/4 | Mortalities/number tested (Swiss CF-1 mice; 0.540 mmol/kg i.v., day 6 after dosing): 2/4 | Mortalities/number tested (Swiss CF-1 mice; 0.540 mmol/kg i.v., day 7 after dosing): 2/4 | Mortalities/number tested (Swiss CF-1 mice; 0.540 mmol/kg i.v., immediate): 2/4 | Body weight change (Swiss CF-1 mice; 0.630 mmol/kg i.v., after 7 days): +1.6 g | Mortalities/number tested (Swiss CF-1 mice; 0.630 mmol/kg i.v., day 1 after dosing): 3/4 | Mortalities/number tested (Swiss CF-1 mice; 0.630 mmol/kg i.v., day 2 after dosing): 3/4 | Mortalities/number tested (Swiss CF-1 mice; 0.630 mmol/kg i.v., day 3 after dosing): 3/4 | Mortalities/number tested (Swiss CF-1 mice; 0.630 mmol/kg i.v., day 4 after dosing): 3/4 | Mortalities/number tested (Swiss CF-1 mice; 0.630 mmol/kg i.v., day 5 after dosing): 3/4 | Mortalities/number tested (Swiss CF-1 mice; 0.630 mmol/kg i.v., day 6 after dosing): 3/4 | Mortalities/number tested (Swiss CF-1 mice; 0.630 mmol/kg i.v., day 7 after dosing): 3/4 | Mortalities/number tested (Swiss CF-1 mice; 0.630 mmol/kg i.v., immediate): 3/4 | pharmacotoxic reactions immediately after injection (Swiss CF-1 mice; 0.360-0.630 mmol/kg i.v., mice): Mild to severe convulsions occurred in all the animals immediately after injections | pharmacotoxic reactions of surviving animals (Swiss CF-1 mice; 0.360-0.630 mmol/kg i.v., mice): mild to severe depression which was resolved within one hour after dosing | weight gains (Swiss CF-1 mice; 7-day observation): normal | LD50 (Swiss CF-1 mice; mouse, listed as dihydrogen bis(N-[N′-(2,6-dimethylphenyl)carbamoylmethyl]-iminodiaceto)manganese): ~0.5 mmol/kg | LD50 (Swiss CF-1 mice; mouse, listed as dihydrogen bis(N-[N′-(2,6-dimethylphenyl)carbamoylmethyl]iminodiaceto)-manganese): approximately 0.540 mmol/kg | necropsy findings (Swiss CF-1 mice; after 7 days): did not reveal any abnormalities | diagnostic safety ratio (Swiss CF-1 mice; mouse i.v. LD50 vs ED50 for hepatic T1 enhancement): approximately 50 | intravenous toxicity profile (Swiss CF-1 mice; mouse, in vivo, iv): favorable intravenous toxicity profile | tissue T1 relaxation times at 45 min compared with 15 min (rabbits; 0.03 mmol/kg i.v.): decreased to the same extent as noted at 15 min | T1 relaxation time (rabbits; Bladder): 367 ms | T2 relaxation time (rabbits; Bladder): 72 ms | T1 relaxation time (rabbits; Fat): 137 ms | T2 relaxation time (rabbits; Fat): 125 ms | T1 relaxation time (rabbits; Heart): 265 ms | T2 relaxation time (rabbits; Heart): 57 ms | T1 relaxation time (rabbits; Large Intestine): 154 ms | T2 relaxation time (rabbits; Large Intestine): 47 ms | T1 relaxation time (rabbits; Liver): 37 ms | T2 relaxation time (rabbits; Liver): 24 ms | T1 relaxation time (rabbits; Lung): 438 ms | T2 relaxation time (rabbits; Lung): 89 ms | T1 relaxation time (rabbits; Pancreas): 117 ms | T2 relaxation time (rabbits; Pancreas): 75 ms | T1 relaxation time (rabbits; Renal cortex): 143 ms | T2 relaxation time (rabbits; Renal cortex): 57 ms | T1 relaxation time (rabbits; Renal medulla): 244 ms | T2 relaxation time (rabbits; Renal medulla): 91 ms | T1 relaxation time (rabbits; Skeletal muscle): 315 ms | T2 relaxation time (rabbits; Skeletal muscle): 41 ms | T1 relaxation time (rabbits; Small Intestine): 129 ms | T2 relaxation time (rabbits; Small Intestine): 48 ms | T1 relaxation time (rabbits; Spleen): 271 ms | T2 relaxation time (rabbits; Spleen): 71 ms | T1 relaxation time (rabbits; Stomach): 159 ms | T2 relaxation time (rabbits; Stomach): 47 ms | bile T1 relative to preinjection control value (rabbit [3]; at 105 min): less than 10% | bile T2 relaxation time (rabbit [3]; gradual increase following injection): 44 ms | bile T1 relaxation time (rabbit [3]; over the 105 minute time course (end value)): 91 ms | bile T1 relaxation time (rabbit [3]; within 1 min of injection): 60 ms | heart and liver T1 values (rabbit [4]; killed at 5 and 15 min, 5 and 10 mHz instruments): reduced tissue T1 values at both frequencies | tissue T1 and T2 relaxation times (rabbit [4]; rabbit killed at 1 week): returned to control values
